Legend:
Assay type in all cases: in vivo
[1] = system: AMBROSIA ARTEMISIIFOLIA, L.; assay: Preemergence herbicidal evaluation, AMBEL (Ragweed, Common); conditions: rated four to five weeks after treatment
Summary of the method: (§1)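 Greenhouse preemergence test; treated soil cups received compound in aqueous acetone (about 0.125 to 0.50 kg/ha) right after sowing and were assessed visually 4-5 weeks later on a 0-9 scale compared with control plants.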

IPOMOEA SPP. = assay: Preemergence herbicidal evaluation, IPOSS (Morningglory spp.); conditions: rated four to five weeks after treatment
Summary of the method: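 Seeds of morningglory (Ipomoea spp.) were mixed with potting soil and sown on roughly one inch of soil in pint cups for a preemergence herbicide test. The cups were put on greenhouse benches, watered, and maintained by standard greenhouse practice. Four to five weeks after treatment each cup was scored visually on a 0-9 scale against a control.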

[2] = system: SETARIA VIRIDIS, (L) BEAU; assay: Preemergence herbicidal evaluation, SETVI (Foxtail, Green); conditions: rated four to five weeks after treatment
Summary of the method: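 Seeds of green foxtail (Setaria viridis) were mixed with potting soil and sown on top of roughly one inch of soil in pint cups for a preemergence herbicide test. Treated cups were kept on greenhouse benches, watered, and cared for conventionally. Four to five weeks after treatment, plants were rated visually on a 0-9 scale against a control.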

[3] = system: ORYZA SATIVA, L. TEBONNET; assay: Preemergence herbicidal evaluation, ORYSAT (Rice, Tebonnet); conditions: rated four to five weeks after treatment
Summary of the method: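 Seeds of rice (Oryza sativa, Tebonnet) were mixed with potting soil and sown on about one inch of soil in pint cups, then treated preemergence. Cups sat on greenhouse benches, watered and tended by standard greenhouse practice. Four to five weeks after treatment, plants were visually scored on a 0-9 scale relative to a control.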

[4] = system: TRITICUM AESTIVUM, CV. APOLLO; assay: Preemergence herbicidal evaluation, TRZAWO (Wheat, Winter, CV. APOLLO); conditions: rated four to five weeks after treatment
Summary of the method: as §1

[5] = system: ECHINOCHLOA CRUS-GALLI, (L) BEAU; assay: Preemergence herbicidal evaluation, ECHCG (Barnyardgrass); conditions: rated four to five weeks after treatment
Summary of the method: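 Barnyardgrass seeds were mixed with potting soil and planted on about one inch of soil in pint cups for preemergence testing. Treated cups were kept on greenhouse benches, watered and maintained by standard greenhouse practice. After four to five weeks, each cup was visually rated on a 0-9 scale against an untreated control.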

SCIRPUS JUNCOIDES = assay: Preemergence evaluation in the presence of transplanted rice under flooded paddy conditions (Example 43), SCPJU (Bulrush, Japanese); parameters: key: visual rating on a 0-9 scale, compared with control; conditions: applied three days after sowing, 25 to 30 days after treatment
Procedure: (§2) Results of herbicide evaluation are expressed on a rating scale (0-9). The scale is based upon a visual observation of plant stand, vigor, malformation, size, chlorosis and overall plant appearance as compared with a control.
(§3) In this example, Deluvian paddy soil (Toyokawa paddy soil) is placed in plastic pots, 100cm^2 x 9 cm in depth. Water is added to the level of the soil surface in the pot and the mixture is paddled 3 cm in depth.
(§4) Pots are then variously sown with monocotyledenous weed seeds and tubers at 0-2 cm in soil depth, as well as transplanted rice plants at the 2.5 leaf stage. The rice plants are transplanted at about 3 cm soil depth. Water is then added to all of the pots to 3 cm deep and kept at a depth of 3 cm for the duration of the test. Test compounds are applied in the manner described in Example 42 three days after transplanting the rice plants and sowing the weed seeds and tubers. The pots are then placed on greenhouse benches and cared for in the conventional manner. Tests are examined at 25 to 30 days after treatment and rated according to the rating system provided in Example 40. The compounds evaluated are reported by compound number given in Example 40.

SAGITTARIA PYGMAEA = assay: Preemergence evaluation in the presence of transplanted rice under flooded paddy conditions (Example 43), SAGPY (Arrowhead (Pygmaea)); parameters: key: visual rating on a 0-9 scale, compared with control; conditions: applied three days after sowing, 25 to 30 days after treatment
Procedure: as §2, §3, §4

[…] = Preemergence evaluation in the presence of transplanted rice under flooded paddy conditions (Example 43), MOOVA (Monochoria); conditions: applied three days after sowing, 25 to 30 days after treatment
Procedure: as §2, §3, §4

ECHINOCHLOA CRUS-GALLI = assay: Preemergence evaluation in the presence of transplanted rice under flooded paddy conditions (Example 43), ECHCG (Barnyard Grass); parameters: key: visual rating on a 0-9 scale, compared with control; conditions: applied three days after sowing, 25 to 30 days after treatment
Procedure: as §2, §3, §4

[6] = system: ORYZA SATIVA, L. CV. KOSHIHIKARI; assay: Post-transplant rice evaluation under flooded paddy conditions (Example 43), ORYSAK (Rice, Koshihikari); parameters: key: visual rating on a 0-9 scale, compared with control; conditions: applied three days after transplanting rice, 25 to 30 days after treatment
Procedure: as §2, §3, §4

CYPERUS DIFFORMIS = assay: Preemergence evaluation in the presence of transplanted rice under flooded paddy conditions (Example 43), CYPDI (Flatsedge, smallflower); parameters: key: visual rating on a 0-9 scale, compared with control; conditions: applied three days after sowing, 25 to 30 days after treatment
Procedure: as §2, §3, §4

COC(=O)Cn1c(=O)n(C)c(=O)n(-c2cc(Oc3ccc(SC)cc3Cl)ccc2[N+](=O)[O-])c1=O [Compound 34, Methyl 3-{5-[2-chloro-4-(methylthio)-phenoxy]-2-nitrophenyl}tetrahydro-5-methyl-2,4,6-trioxo-s-triazine-1(2H)-acetate]
AMBEL herbicidal rating ([1]; Rate 0.125 kg/ha): 0.0 | AMBEL herbicidal rating ([1]; Rate 0.250 kg/ha): 0.0 | AMBEL herbicidal rating ([1]; Rate 0.500 kg/ha): 0.0 | IPOSS herbicidal rating (IPOMOEA SPP.; Rate 0.125 kg/ha): 0.0 | IPOSS herbicidal rating (IPOMOEA SPP.; Rate 0.250 kg/ha): 0.0 | IPOSS herbicidal rating (IPOMOEA SPP.; Rate 0.500 kg/ha): 0.0 | SETVI herbicidal rating ([2]; Rate 0.125 kg/ha): 0.0 | SETVI herbicidal rating ([2]; Rate 0.250 kg/ha): 0.0 | SETVI herbicidal rating ([2]; Rate 0.500 kg/ha): 0.0 | ORYSAT herbicidal rating ([3]; Rate 0.125 kg/ha): 0.0 | ORYSAT herbicidal rating ([3]; Rate 0.250 kg/ha): 0.0 | ORYSAT herbicidal rating ([3]; Rate 0.500 kg/ha): 0.0 | TRZAWO herbicidal rating ([4]; Rate 0.125 kg/ha): 0.0 | TRZAWO herbicidal rating ([4]; Rate 0.250 kg/ha): 0.0 | TRZAWO herbicidal rating ([4]; Rate 0.500 kg/ha): 0.0 | ECHCG herbicidal rating ([5]; Rate 0.125 kg/ha): 0.0 | ECHCG herbicidal rating ([5]; Rate 0.250 kg/ha): 0.0 | ECHCG herbicidal rating ([5]; Rate 0.500 kg/ha): 0.0

COC(=O)Cn1c(=O)n(C)c(=O)n(-c2cc(Oc3c(F)cc(C(F)(F)F)cc3Cl)ccc2F)c1=O [Compound 4, Methyl 3-{5-[(2-chloro-α,α,α,6-tetrafluoro-p-tolyl)oxy]-2-fluorophenyl}tetrahydro-5-methyl-2,4,6-trioxo-s-triazine-1(2H)-acetate]
Herbicidal effect rating, SCPJU (SCIRPUS JUNCOIDES; 0.032 kg/ha): 7.0 | Herbicidal effect rating, SCPJU (SCIRPUS JUNCOIDES; 0.063 kg/ha): 9.0 | Herbicidal effect rating, SCPJU (SCIRPUS JUNCOIDES; 0.125 kg/ha): 9.0 | Herbicidal effect rating, SCPJU (SCIRPUS JUNCOIDES; 0.250 kg/ha): 9.0 | Herbicidal effect rating, SAGPY (SAGITTARIA PYGMAEA; 0.032 kg/ha): 0.0 | Herbicidal effect rating, SAGPY (SAGITTARIA PYGMAEA; 0.063 kg/ha): 2.0 | Herbicidal effect rating, SAGPY (SAGITTARIA PYGMAEA; 0.125 kg/ha): 6.0 | Herbicidal effect rating, SAGPY (SAGITTARIA PYGMAEA; 0.250 kg/ha): 9.0 | Herbicidal effect rating, MOOVA ([…]; 0.032 kg/ha): 9.0 | Herbicidal effect rating, MOOVA ([…]; 0.063 kg/ha): 9.0 | Herbicidal effect rating, MOOVA ([…]; 0.125 kg/ha): 9.0 | Herbicidal effect rating, MOOVA ([…]; 0.250 kg/ha): 9.0 | Herbicidal effect rating, ECHCG (ECHINOCHLOA CRUS-GALLI; 0.032 kg/ha): 9.0 | Herbicidal effect rating, ECHCG (ECHINOCHLOA CRUS-GALLI; 0.063 kg/ha): 9.0 | Herbicidal effect rating, ECHCG (ECHINOCHLOA CRUS-GALLI; 0.125 kg/ha): 9.0 | Herbicidal effect rating, ECHCG (ECHINOCHLOA CRUS-GALLI; 0.250 kg/ha): 9.0 | Herbicidal effect rating, ORYSAK ([6]; 0.032 kg/ha): 1.0 | Herbicidal effect rating, ORYSAK ([6]; 0.063 kg/ha): 4.0 | Herbicidal effect rating, ORYSAK ([6]; 0.125 kg/ha): 7.0 | Herbicidal effect rating, ORYSAK ([6]; 0.250 kg/ha): 9.0 | Herbicidal effect rating, CYPDI (CYPERUS DIFFORMIS; 0.032 kg/ha): 9.0 | Herbicidal effect rating, CYPDI (CYPERUS DIFFORMIS; 0.063 kg/ha): 9.0 | Herbicidal effect rating, CYPDI (CYPERUS DIFFORMIS; 0.125 kg/ha): 9.0 | Herbicidal effect rating, CYPDI (CYPERUS DIFFORMIS; 0.250 kg/ha): 9.0

COC(=O)Cn1c(=O)n(C)c(=O)n(-c2cc(Oc3ccccn3)ccc2[N+](=O)[O-])c1=O [Compound 38, Methyl tetrahydro-3-methyl-5-[2-nitro-5-(2-pyridyloxy)phenyl]-2,4,6-trioxo-s-triazine-1(2H)-acetate]
AMBEL herbicidal rating ([1]; Rate 0.500 kg/ha): 0.0 | IPOSS herbicidal rating (IPOMOEA SPP.; Rate 0.500 kg/ha): 0.0 | SETVI herbicidal rating ([2]; Rate 0.500 kg/ha): 0.0 | ORYSAT herbicidal rating ([3]; Rate 0.500 kg/ha): 3.0 | TRZAWO herbicidal rating ([4]; Rate 0.500 kg/ha): 1.0 | ECHCG herbicidal rating ([5]; Rate 0.500 kg/ha): 0.0

COC(=O)Cn1c(=O)n(C)c(=O)n(-c2cc(Oc3cc(Cl)cc(Cl)c3)ccc2[N+](=O)[O-])c1=O [Compound 35, Methyl 3-[5-(3,5-dichlorophenoxy)-2-nitrophenyl]tetrahydro-5-methyl-2,4,6-trioxo-s-triazine-1(2H)-acetate]
AMBEL herbicidal rating ([1]; Rate 0.500 kg/ha): 0.0 | IPOSS herbicidal rating (IPOMOEA SPP.; Rate 0.500 kg/ha): 0.0 | SETVI herbicidal rating ([2]; Rate 0.500 kg/ha): 0.0 | ORYSAT herbicidal rating ([3]; Rate 0.500 kg/ha): 0.0 | TRZAWO herbicidal rating ([4]; Rate 0.500 kg/ha): 0.0 | ECHCG herbicidal rating ([5]; Rate 0.500 kg/ha): 0.0
